Reference: patent US10202365B2, “2-(pyridin-3-yl)-pyrimidine derivatives as RET inhibitors” (BLUEPRINT MEDICINES CORPORATION, priority 2015, dated 2019)

biological target: wild type RET (Homo sapiens (Human), UniProt P07949); assay: RET Wild Type Assay at KM (Caliper electrophoretic mobility shift); type: biochemical; conditions: 25 μM ATP, 25° C., 120 minutes
Sequence (P07949 29-1114): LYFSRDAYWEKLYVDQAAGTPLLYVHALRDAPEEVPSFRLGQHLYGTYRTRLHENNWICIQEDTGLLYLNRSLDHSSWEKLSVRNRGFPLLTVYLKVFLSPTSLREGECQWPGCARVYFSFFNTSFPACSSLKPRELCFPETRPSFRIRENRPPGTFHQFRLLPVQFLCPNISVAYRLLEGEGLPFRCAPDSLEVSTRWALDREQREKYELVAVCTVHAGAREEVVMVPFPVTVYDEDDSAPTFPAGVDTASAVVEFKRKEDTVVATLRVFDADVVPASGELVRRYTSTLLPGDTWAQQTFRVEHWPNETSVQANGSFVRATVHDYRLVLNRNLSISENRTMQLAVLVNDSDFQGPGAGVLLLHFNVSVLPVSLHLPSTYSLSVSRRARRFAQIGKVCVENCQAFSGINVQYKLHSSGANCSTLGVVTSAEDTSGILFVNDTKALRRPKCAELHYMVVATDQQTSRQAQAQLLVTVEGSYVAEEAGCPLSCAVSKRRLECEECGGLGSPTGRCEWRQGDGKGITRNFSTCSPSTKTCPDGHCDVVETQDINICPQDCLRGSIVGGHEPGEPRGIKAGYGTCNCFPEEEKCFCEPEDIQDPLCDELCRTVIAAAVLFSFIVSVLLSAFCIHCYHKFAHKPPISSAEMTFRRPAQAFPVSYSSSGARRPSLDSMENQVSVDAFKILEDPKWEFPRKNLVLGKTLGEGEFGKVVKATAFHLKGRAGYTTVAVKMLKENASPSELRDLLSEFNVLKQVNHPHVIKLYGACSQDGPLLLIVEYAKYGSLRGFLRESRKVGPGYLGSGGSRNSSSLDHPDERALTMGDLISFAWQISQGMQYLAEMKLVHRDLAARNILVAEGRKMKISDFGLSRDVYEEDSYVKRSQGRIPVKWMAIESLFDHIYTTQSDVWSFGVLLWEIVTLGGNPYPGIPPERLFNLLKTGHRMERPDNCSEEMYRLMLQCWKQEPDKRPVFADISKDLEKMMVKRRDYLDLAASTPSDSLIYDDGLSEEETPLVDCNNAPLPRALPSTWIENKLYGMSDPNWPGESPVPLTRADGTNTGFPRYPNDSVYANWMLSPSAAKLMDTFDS

| SMILES | IC50 [nM] |
| --- | --- |
| Cc1cc(Nc2cc(C)[nH]n2)nc(-c2ccc(C(=O)NCc3ccoc3)nc2)n1 [Compound 1] | 10 to 100 |
| Cc1cc(Nc2cc(C)[nH]n2)nc(-c2ccc(C(=O)NCc3cncs3)nc2)n1 [Compound 3] | > 100 |
| Cc1cc(Nc2cc(C)[nH]n2)nc(-c2ccc(C(=O)NCc3ccc(F)cc3)nc2)n1 [Compound 9] | 10 to 100 |
| Cc1cc(Nc2cc(C)[nH]n2)nc(-c2ccc(C(=O)NCc3ccc(Cl)cc3)nc2)n1 [Compound 11] | 10 to 100 |
| Cc1cc(Nc2cc(C)[nH]n2)nc(-c2cnc(C(=O)NCc3ccc(-n4cccn4)nc3)c(C)c2)n1 [Compound 19] | < 10 |
| Cc1cc(Nc2cc(C)[nH]n2)nc(-c2ccc(C(=O)NCc3cnc(-n4cc(F)cn4)cn3)nc2)n1 [Compound 21] | < 10 |
| Cc1cc(Nc2cc(C)[nH]n2)nc(-c2ccc(C(=O)NCc3ccc(-n4cc(C#N)cn4)nc3)nc2)n1 [Compound 22] | 10 to 100 |
| Cc1cc(Nc2cc(C)[nH]n2)nc(-c2ccc(C(=O)NCc3ccc(-n4ccc(C5CC5)n4)nc3)nc2)n1 [Compound 26] | < 10 |
| Cc1cc(Nc2cc(C)[nH]n2)nc(-c2ccc(C(=O)NCc3ccc(-n4cc(C5CC5)cn4)nc3)nc2)n1 [Compound 27] | 10 to 100 |
| Cc1cc(Nc2cc(C)[nH]n2)nc(-c2ccc(C(=O)NCc3ccc(-n4cc(CCO)cn4)nc3)nc2)n1 [Compound 28] | 10 to 100 |
| Cc1cc(Nc2cc(C)[nH]n2)nc(-c2cnc(C(=O)N[C@@H](C)c3ccc(-n4cc(F)cn4)nc3)c(C)c2)n1 [Compound 29, (S)—N-(1-(6-(4-fluoro-1H-pyrazol-1-yl)pyridin-3-yl)ethyl)-3-methyl-5-(4-methyl-6-((5-methyl-1H-pyrazol-3-yl)amino)pyrimidin-2-yl)picolinamide] | < 10 |
| Cc1cc(Nc2cc(C)[nH]n2)nc(-c2ccc(C(=O)NCc3ccc(-n4cc(C(F)F)c(C)n4)nc3)nc2)n1 [Compound 32] | 10 to 100 |

More lines, now with the values ahead:

| IC50 [nM] | SMILES |
| --- | --- |
| 10 to 100 | Cc1cc(Nc2cc(C)[nH]n2)nc(-c2ccc(C(=O)N3Cc4ccccc4C3)nc2)n1 [Compound 4] |
| 10 to 100 | Cc1ccc(CNC(=O)c2ccc(-c3nc(C)cc(Nc4cc(C)[nH]n4)n3)cn2)cc1 [Compound 5] |
| > 100 | Cc1cc(Nc2cc(C)[nH]n2)nc(-c2ccc(C(=O)N[C@H](C)c3ccccc3)nc2)n1 [Compound 6] |
| 10 to 100 | Cc1ccc(CNC(=O)c2ccc(-c3nc(C)cc(Nc4cc(C)[nH]n4)n3)cn2)nc1 [Compound 7] |
| > 100 | Cc1cc(Nc2cc(C)[nH]n2)nc(-c2ccc(C(=O)NCc3cccc(F)c3)nc2)n1 [Compound 8] |
| 10 to 100 | CCOc1ccc(CNC(=O)c2ncc(-c3nc(C)cc(Nc4cc(C)[nH]n4)n3)cc2C)cc1 [Compound 13] |
| > 100 | CCOc1ccc([C@@H](C)NC(=O)c2ncc(-c3nc(C)cc(Nc4cc(C)[nH]n4)n3)cc2C)cc1 [Compound 16] |
| > 100 | CCOc1ccc([C@H](C)NC(=O)c2ncc(-c3nc(C)cc(Nc4cc(C)[nH]n4)n3)cc2C)cc1 [Compound 17] |
| < 10 | Cc1cnn(-c2ccc(CNC(=O)c3ccc(-c4nc(C)cc(Nc5cc(C)[nH]n5)n4)cn3)cn2)c1 [Compound 18] |
| < 10 | Cc1cc(Nc2cc(C)[nH]n2)nc(-c2cnc(C(=O)N[C@@H](C)c3ccc(-n4cccn4)nc3)c(C)c2)n1 [Compound 23] |
| < 10 | Cc1cc(Nc2cc(C)[nH]n2)nc(-c2ccc(C(=O)NCc3ccc(-n4nc(C)cc4C)nc3)nc2)n1 [Compound 24] |
| < 10 | Cc1cc(Nc2cc(C)[nH]n2)nc(-c2ccc(C(=O)N[C@@H](C)c3ccc(-n4cc(F)cn4)nc3)nc2)n1 [Compound 25, (S)—N-(1-(6-(4-fluoro-1H-pyrazol-1-yl)pyridin-3-yl)ethyl)-5-(4-methyl-6-((5-methyl-1H-pyrazol-3-yl)amino)pyrimidin-2-yl)picolinamide] |
| < 10 | Cc1cc(Nc2cc(C)[nH]n2)nc(-c2cnc(C(=O)N[C@@H](C)c3ccc(-n4cc(F)cn4)nc3)c(F)c2)n1 [Compound 30, (S)-3-fluoro-N-(1-(6-(4-fluoro-1H-pyrazol-1-yl)pyridin-3-yl)ethyl)-5-(4-methyl-6-((5-methyl-1H-pyrazol-3-yl)amino)pyrimidin-2-yl)picolinamide] |
| 10 to 100 | Cc1cc(Nc2cc(C)[nH]n2)nc(-c2ccc(C(=O)NCc3ccc(-n4cc(C(F)F)cn4)nc3)nc2)n1 [Compound 31] |
| < 10 | CC[C@@H](NC(=O)c1ccc(-c2nc(C)cc(Nc3cc(C)[nH]n3)n2)cn1)c1ccc(-n2cc(F)cn2)nc1 [Compound 34] |
